Test results as given in patent US20250212875A1, “PESTICIDAL AND HERBICIDAL COMPOUNDS AND METHODS OF USE THEREOF” (AG PLENUS LTD, priority 2022, published 2025).

What was measured:
Echinochloa crus-galli [1] = assay: LTP post-emergence greenhouse screen
Experimental: (§4) A basic panel of eight weed species (Table 3) sowed in 4×4×7 cm plastic pots containing a garden mix (klasmann). Each specie was sowed in a separate pot. In each pot, 10-15 seeds were sowed according to the specie viability. Timing of application determined at a 1-2 true leaf stage. The plants grew for 30 days in a controlled greenhouse (26±2° C. day, 20±2° C. night). Flood irrigation (tap water+Shefer 5:3:8 8 mM) was given at a 50% water content by weight. Two days before application, the tested plants thinned down to three plants per pot. Compounds were soluble in water (DDW), and commercial herbicide control was soluble in formulation B (Table 4). Before application, 1% (v/v) crop oil and 0.02% (v/v) surfactant (Tergitol™ 15-S-7) were added to the solution. Application was conducted with an industrial sprayer (TeeJet 6502E nozzle) at a rate of 2 kg/ha and spray volume of 4801/ha. Plants were evaluated at 3 time points (4, 8, 12 days after application (DAA)). At each time point, visual phenotyping was recorded using a scale of 0-6 (0: no visible effect, 6: maximum effect). At 12 DAA, plants foliage was harvested, dried and weighed for dry weight analysis.
(§5) All experiments included an untreated control, a solvent control, and a positive control (commercial herbicide A.I.). Statistical analysis for visual phenotyping determined by a median value of ≥3.5 and Fisher test (pval≤0.05). Statistical analysis for dry weight determined by % inhibition ≥50 and T test (pval≤0.05), as well as Wilcox test (pval≤0.05).

[2] = test system: monocot and eudicot weeds species; assay: LTP weed panel, summary in words; type: in vivo; details: for growth inhibition (in words): mainly in pre-emergence applications
Digitaria sanguinalis [3] = assay: LTP post-emergence greenhouse screen
Experimental: as §4
(§6) Post-emergence advanced wide panel experiment included 24 weed species (Table 5). Application was conducted at 2 rates of 2 kg/ha and 0.25 kg/ha and spray volume of 480 l/ha. Visual phenotyping was recorded at 4, 11, 17 and 20 DAA using a scale of 0-6 (0: no visible effect, 6: maximum effect). At 21 DAA, plants foliage was harvested, dried, and weighed for dry weight analysis. All experiments included an untreated control, a solvent control, and a positive control (commercial herbicide A.I.). Statistical analysis for visual phenotyping determined by a median value of ≥3.5 and Fisher test (pval≤0.05). Statistical analysis for dry weight determined by % inhibition ≥50 and T test (pval≤0.05), as well as Wilcox test (pval≤0.05).

Lolium multiflorum [4] = assay: LTP post-emergence greenhouse screen
Experimental: (§7) A basic panel of eight weed species (Table 3) sowed in 4×4×7 cm plastic pots containing a garden mix (klasmann). Each specie was sowed in a separate pot. In each pot, 10-15 seeds were sowed according to the specie viability. Timing of application determined at a 1-2 true leaf stage. The plants grew for 30 days in a controlled greenhouse (26±2° C. day, 20±2° C. night). Flood irrigation (tap water+Shefer 5:3:8 8 mM) was given at a 50% water content by weight. Two days before application, the tested plants thinned down to three plants per pot. Compounds were soluble in water (DDW), and commercial herbicide control was soluble in formulation B (Table 4). Before application, 1% (v/v) crop oil and 0.02% (v/v) surfactant (Tergitol™ 15-S-7) were added to the solution. […] Plants were evaluated at 3 time points (4, 8, 12 days after application (DAA)). At each time point, visual phenotyping was recorded using a scale of 0-6 (0: no visible effect, 6: maximum effect). […]
as §5

Poa annua [5] = assay: LTP pre-emergence greenhouse screen; type: in vivo
Experimental: (§1) Sowing was performed one day before application.
(§2) Percentage of emergence was evaluated at 15 DAA.

Lolium perenne [6] = assay: LTP pre-emergence greenhouse screen; type: in vivo
Experimental: as §1, §2

Phalaris paradoxa = assay: LTP pre-emergence greenhouse screen; type: in vivo
Experimental: as §1, §2

Lolium multiflorum [7] = assay: LTP pre-emergence greenhouse screen; type: in vivo
Experimental: as §1, §2

Alopecurus myosuroides = assay: LTP pre-emergence greenhouse screen; type: in vivo
Experimental: as §1, §2

Digitaria sanguinalis [8] = assay: LTP pre-emergence greenhouse screen; type: in vivo
Experimental: as §1, §2

Echinochloa crus-galli [9] = assay: LTP pre-emergence greenhouse screen; type: in vivo
Experimental: as §1, §2

Echinochloa colona [10] = assay: LTP pre-emergence greenhouse screen; type: in vivo
Experimental: as §1, §2

Poa annua [11] = assay: LTP post-emergence greenhouse screen
Experimental: as §4, §6

Arabidopsis thaliana [12] = assay: HTPS post-emergence on miniature dicot model plants; type: in vivo; details: green area (RGB), maximal concentration 1.5 kg/ha, read-out: Max inhibition (%)
Experimental: Arabidopsis thaliana seeds were sown in 96 well plates filled with irrigated Sweet sand (10%>clay) that is washed from salts and minerals using tap water. 5-10 seeds were sown in the center of each well. 7-8 days post sowing, at 2 true leaves stage, thinning out was performed to ensure that compound application is done on a single plant per well. The plates were placed in a controlled greenhouse in a random order inside a bath which allows flooding irrigation with tap water supplemented with a fertilizer. Applied compounds were dissolved into a final solution of 50% acetone, 49.9% DDW, 0.1% tween-20. A 96 well plate was used as a stock plate for preparing application solutions for 8 repeats. Each row contained different concentrations per chemical. Maximal concentration for application was 1.5 kg/ha and dilution factor is 2.5. Chemical application was performed one day after thinning out in a chemical hood. 5 μL applied on first two true leaves in each well using 12 channel pipettes. Data collection: RGB (red, green, blue) data for green area per well was documented using camera. Data is collected at a few time points during the experiment: one day after thinning and before chemical application, two-, six- or nine-days post application. During the last two documentations, visual phenotyping was performed. Data analysis: Given RGB results and visual phenotype scores, a student t-test conducted to compare between treatment and control performance for continuous data (RGB) and Fisher exact test to analyze the non-continuous data (phenotypic scores). Dose-Response curves are generated for each treatment to infer ED50 and max. inhibition parameters, using treatment's log concentration range as the […] variable and normalized green area. Plate imaging performed at 11 and 18 DAA. RGB data for green area per well was documented and used to extract % inhibition. Dose-Response curves were built for each treatment to infer EC50, EC75 and EC90 parameters, using treatment's log concentration range as the independent variable and normalized green area as the dependent variable. Treatments were compared to controls performance given RGB results and using student's t-test (p-val≤0.05). Compounds 101, 110, 112, 119, 124, 125, 146, 154, 157, 172, 170, 169, 112, and 166 were applied in either or both pre- and post-emergence mode to either or both monocot and dicot model plants, following the methods described above. The compounds were applied as a gradient of concentrations as listed above, from which the ED50 was calculated.

Alopecurus monureide's = assay: LTP post-emergence greenhouse screen
Experimental: as §4, §6

Lolium perenne [13] = assay: LTP post-emergence greenhouse screen
Experimental: as §7, §5

Setaria viridis = assay: LTP post-emergence greenhouse screen
Experimental: as §4, §6

Echinochloa colona [14] = assay: LTP post-emergence greenhouse screen
Experimental: as §4, §6

[15] = test system: monocot and dicot model plants; assay: HTPS model plants, summary in words; type: in vivo; details: HTPS systems where they were tested
Experimental: Arabidopsis thaliana seeds were sown in 96 well plates filled with irrigated Sweet sand (10%>clay) that is washed from salts and minerals using tap water. 5-10 seeds were sown in the center of each well. 7-8 days post sowing, at 2 true leaves stage, thinning out was performed to ensure that compound application is done on a single plant per well. The plates were placed in a controlled greenhouse in a random order inside a bath which allows flooding irrigation with tap water supplemented with a fertilizer. Applied compounds were dissolved into a final solution of 50% acetone, 49.9% DDW, 0.1% tween-20.
A 96 well plate was used as a stock plate for preparing application solutions for 8 repeats. Each row contained different concentrations per chemical. Maximal concentration for application was 1.5 kg/ha and dilution factor is 2.5. Chemical application was performed one day after thinning out in a chemical hood. 5 μL applied on first two true leaves in each well using 12 channel pipettes. […]
(§3) Compounds 101, 110, 112, 119, 124, 125, 146, 154, 157, 172, 170, 169, 112, and 166 were applied in either or both pre- and post-emergence mode to either or both monocot and dicot model plants, following the methods described above. The compounds were applied as a gradient of concentrations as listed above, from which the ED50 was calculated.

Galium aparine = assay: LTP post-emergence greenhouse screen
Experimental: as §7, §5

Matricaria chamomilla = assay: LTP pre-emergence greenhouse screen; type: in vivo
Experimental: as §1, §2

Amaranthus palmeri [16] = assay: LTP pre-emergence greenhouse screen; type: in vivo
Experimental: as §1, §2

Amaranthus tuberculatus = assay: LTP post-emergence greenhouse screen; type: in vivo
Arabidopsis thaliana [17] = assay: HTPS pre-emergence on dicot model plants; type: in vivo; details: green area (RGB)
Experimental: A 96 well plate was used as a stock plate for preparing application solutions for 8 repeats. Each row contained different concentrations per chemical. Maximal concentration for application was 1.5 kg/ha and dilution factor is 2.5. Chemical application was performed one day after thinning out in a chemical hood. 5 μL applied on first two true leaves in each well using 12 channel pipettes. Data collection: RGB (red, green, blue) data for green area per well was documented using camera. Data is collected at a few time points during the experiment: one day after thinning and before chemical application, two-, six- or nine-days post application. During the last two documentations, visual phenotyping was performed. Data analysis: Given RGB results and visual phenotype scores, a student t-test conducted to compare between treatment and control performance for continuous data (RGB) and Fisher exact test to analyze the non-continuous data (phenotypic scores). […]
as §3

Eragrostis teff = assay: HTPS pre-emergence on monocot model plants; type: in vivo; details: green area (RGB)
Experimental: A 96 well plate was used as a stock plate for preparing application solutions for 8 repeats. Each row contained different concentrations per chemical. Maximal concentration for application was 1.5 kg/ha and dilution factor is 2.5. Chemical application was performed one day after thinning out in a chemical hood. 5 μL applied on first two true leaves in each well using 12 channel pipettes. Data collection: RGB (red, green, blue) data for green area per well was documented using camera. Data is collected at a few time points during the experiment: one day after thinning and before chemical application, two-, six- or nine-days post application. During the last two documentations, visual phenotyping was performed. Data analysis: Given RGB results and visual phenotype scores, a student t-test conducted to compare between treatment and control performance for continuous data (RGB) and Fisher exact test to analyze the non-continuous data (phenotypic scores). Dose-Response curves are generated for each treatment to infer ED50 and max. inhibition parameters, using treatment's log concentration range as the […] variable and normalized green area.
These experiments are conducted similarly except that either Arabidopsis thaliana or Eragrostis teff seeds were sowed (5-10 or 5-7, respectively), plant thinning out was not performed, compound dissolved into a final solution of 50% acetone, 49.9% DDW, compound application was done at 30 μL volume per well directly on sowed soil before plant emergence and data was collected 10 or 7 days after chemical application on dicot or monocot plants, respectively.
Plate imaging performed at 11 and 18 DAA. RGB data for green area per well was documented and used to extract % inhibition. […]
as §3

Amaranthus palmeri [18] = assay: LTP post-emergence greenhouse screen
Experimental: as §7, §5

Amaranthus retroflexus = assay: LTP pre-emergence greenhouse screen; type: in vivo
Experimental: as §1, §2

## CC(O)C(N)C/C=C/CC(=O)O (stereo not shown) [Compound 101]
Echinochloa crus-galli [1]
  DAB: disturbed apical bud: 60
  Drd: disturbed root growth: Drd (80)
  IG: inhibited growth: 80
[2]; monocot and eudicot weeds species, post-emergence and pre-emergence, most of the species tested
  control of weeds (in words): excellent control
Digitaria sanguinalis [3]
  DAB: disturbed apical bud: IG (80), DAB (80),
  Drd: disturbed root growth: Drd (80)
  IG: inhibited growth: IG (80), DAB (80),
Lolium multiflorum [4]
  Drd: disturbed root growth: Drd (60)
Poa annua [5]
  IG: inhibited growth: IG (100)
Lolium perenne [6]
  IG: inhibited growth: IG (80)
Phalaris paradoxa
  IG: inhibited growth: IG (80)
Lolium multiflorum [7]
  IG: inhibited growth: IG (100)
Alopecurus myosuroides
  IG: inhibited growth: IG (80)
Digitaria sanguinalis [8]
  IG: inhibited growth: IG (100)
Echinochloa crus-galli [9]
  IG: inhibited growth: IG (100)
Echinochloa colona [10]
  IG: inhibited growth: IG (100)
Poa annua [11]
  Drd: disturbed root growth: IG (80), Drd (80)
  IG: inhibited growth: IG (80), Drd (80)
Arabidopsis thaliana [12]
  inhibition at up to 1500 g/ha: 100%
Alopecurus monureide's
  Bl: bleaching: 60
  DAB: disturbed apical bud: IG (80), DAB (80),
  Drd: disturbed root growth: 80
  IG: inhibited growth: IG (80), DAB (80),
Lolium perenne [13]
  Drd: disturbed root growth: 80
  IG: inhibited growth: 60
Setaria viridis
  DAB: disturbed apical bud: IG (60), DAB (60)
  IG: inhibited growth: IG (60), DAB (60)
Echinochloa colona [14]
  DAB: disturbed apical bud: 60
  Drd: disturbed root growth: Drd (80)
  IG: inhibited growth: 80
[15]
  control (in words): excellent to very good control

## C[C@@H](O)[C@@H](N)/C=C/C=C/C(=O)O [Compound 110]
Galium aparine
  Bl: bleaching: Bl (60)
[2]; applied pre-emergence
  activity on dicots and monocots (in words): good to moderate activity
Poa annua [5]
  IG: inhibited growth: IG (60)
Matricaria chamomilla
  IG: inhibited growth: IG (60)
Amaranthus palmeri [16]
  IG: inhibited growth: IG (80)
Amaranthus tuberculatus
  Drd: disturbed root growth: Drd (80)
Arabidopsis thaliana [12]
  inhibition at up to 1500 g/ha: 100%
[15]
  control (in words): excellent to very good control

## NC1(C/C=C/CC(=O)O)CC1 [Compound 112]
Arabidopsis thaliana [17]
  Max inhibition (%): 100%
Arabidopsis thaliana [12]
  inhibition at up to 1500 g/ha: 87.5%
Eragrostis teff
  Max inhibition (%): 51%

## NC1CCC/C(=C\CCC(=O)O)C1 (stereo not shown) [Compound 119]
[2]
  growth inhibition (in words): very good to moderate growth inhibition
Amaranthus palmeri [16]
  IG: inhibited growth: IG (80)
Echinochloa colona [10]
  IG: inhibited growth: IG (60)
Arabidopsis thaliana [12]
  inhibition at up to 1500 g/ha: 100%

## NC1CCCC(/C=C/CC(=O)O)C1 (stereo not shown) [Compound 124]
[2]
  growth inhibition (in words): very good to moderate growth inhibition
Poa annua [5]
  IG: inhibited growth: IG (100)
Alopecurus myosuroides
  IG: inhibited growth: IG (80)
Amaranthus palmeri [16]
  IG: inhibited growth: IG (80)
Echinochloa colona [10]
  IG: inhibited growth: IG (100)
Arabidopsis thaliana [12]
  inhibition at up to 1500 g/ha: 100%

## NC1(C/C=C/CC(=O)O)CCC1 [Compound 125]
[2]
  growth inhibition (in words): very good to moderate growth inhibition
Poa annua [5]
  IG: inhibited growth: IG (100)
Lolium perenne [6]
  IG: inhibited growth: IG (80)
Alopecurus myosuroides
  IG: inhibited growth: IG (60)
Matricaria chamomilla
  IG: inhibited growth: IG (60)
Amaranthus palmeri [16]
  IG: inhibited growth: IG (80)
Amaranthus palmeri [18]
  IG: inhibited growth: IG (60)
Poa annua [11]
  IG: inhibited growth: IG (60)
Arabidopsis thaliana [12]
  inhibition at up to 1500 g/ha: 100%
Setaria viridis
  IG: inhibited growth: IG (60)

## NC(C/C=C/CC(=O)O)C1CC1 (stereo not shown) [Compound 146]
[2]
  growth inhibition (in words): very good to moderate growth inhibition
Poa annua [5]
  IG: inhibited growth: IG (60)
Alopecurus myosuroides
  IG: inhibited growth: IG (60)
Amaranthus palmeri [16]
  IG: inhibited growth: IG (80)
Arabidopsis thaliana [12]
  inhibition at up to 1500 g/ha: 100%
Eragrostis teff
  Max inhibition (%): 100%

## NC1CCCC(C#CCC(=O)O)C1 (stereo not shown) [Compound 154]
[2]
  growth inhibition (in words): very good to moderate growth inhibition
Poa annua [5]
  IG: inhibited growth: IG (100)
Alopecurus myosuroides
  IG: inhibited growth: IG (80)
Amaranthus palmeri [16]
  IG: inhibited growth: IG (80)
Echinochloa colona [10]
  IG: inhibited growth: IG (100)
Arabidopsis thaliana [12]
  inhibition at up to 1500 g/ha: 100%

## CC(C)C(N)C/C=C/CC(=O)O (stereo not shown) [Compound 157]
Arabidopsis thaliana [12]
  inhibition at up to 1500 g/ha: 100%

## CCCC(N)C/C=C/CC(=O)O (stereo not shown) [Compound 166]
Arabidopsis thaliana [12]
  inhibition at up to 1500 g/ha: 75%
Eragrostis teff
  Max inhibition (%): 47%

## CC(N)CC/C=C/CC(=O)O (stereo not shown) [Compound 169]
Amaranthus retroflexus
  IG: inhibited growth: IG (80)
Arabidopsis thaliana [12]
  inhibition at up to 1500 g/ha: 100%

## CC(N)CCC/C=C/C(=O)O (stereo not shown) [Compound 170]
Amaranthus retroflexus
  IG: inhibited growth: IG (90)
Arabidopsis thaliana [12]
  inhibition at up to 1500 g/ha: 100%

## CC(O)C(N)/C=C/CCC(=O)O (stereo not shown) [Compound 172]
Arabidopsis thaliana [12]
  inhibition at up to 1500 g/ha: 100%
